Data taken from patent publication US20070037253A1, “Methods and compositions for treatment of arthritis and cancer” (priority 2003, published 2007).
“And” between values parts separate entries of the source, which are not always exact repeats. Identical values can stand only once. Where a SMILES comes first, the peptide text is derived from it.

Experiments:
Type in all cases: biochemical
MMP-2 = biological target: T1, MMP-2 (Homo sapiens, UniProt P08253); assay: Gelatin zymography of human synovial fluid pre-incubated with inhibitors; details: 5 or 10 μM, pre-incubated 37° C. 1 h
T1 construct: from tissue; host or cells: human synovial fluid
T1 sequence (P08253 110-660): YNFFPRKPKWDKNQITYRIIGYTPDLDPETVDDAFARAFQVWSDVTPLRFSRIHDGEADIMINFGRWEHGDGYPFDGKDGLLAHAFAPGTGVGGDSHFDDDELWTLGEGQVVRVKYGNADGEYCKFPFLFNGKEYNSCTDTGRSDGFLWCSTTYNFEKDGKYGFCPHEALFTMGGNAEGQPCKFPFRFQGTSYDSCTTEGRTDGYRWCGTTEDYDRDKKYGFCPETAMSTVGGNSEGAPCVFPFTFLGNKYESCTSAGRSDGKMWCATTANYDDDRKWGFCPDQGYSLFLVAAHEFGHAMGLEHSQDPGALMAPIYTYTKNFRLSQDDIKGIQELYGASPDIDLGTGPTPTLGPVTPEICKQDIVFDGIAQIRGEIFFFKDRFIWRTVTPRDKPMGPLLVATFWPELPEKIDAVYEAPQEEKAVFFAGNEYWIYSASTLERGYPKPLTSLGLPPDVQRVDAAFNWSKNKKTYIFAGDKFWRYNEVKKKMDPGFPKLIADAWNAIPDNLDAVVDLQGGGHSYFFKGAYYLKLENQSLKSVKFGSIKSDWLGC
Description: (A) Samples containing human synovial fluid (5 μL) and 5 or 10 μM of peptides were pre-incubated at 37° C. for 1 h in Tris-HCl buffer prior to electrophoresis on 10% SDS-PAGE gel containing gelatin (0.1%). […] (B) The mean density (OD/mm2)±SD (n=3), representing MMP-2 activity, obtained by scanning the zymograms using the GS-710 calibrated imaging densitometer (Bio Rad, USA).
Gelatin zymography: human synovial fluid, purified human recombinant MMP-2 and -9 or APMA-activated concentrated culture supernatant samples (10 μL) was mixed (1:1) with Laemmli sample buffer, loaded on 4% acrylamide stacking gel and electrophoresed (120 V) at 4° C. on a 10% acrylamide-resolving minigel containing 0.1% gelatin. After electrophoresis for 1 h, the gels were soaked in 2.5% Triton X-100 on a shaker for 1 h, changing the solution after 30 min, to eliminate SDS. After overnight incubation in zymogen activation buffer [50 mM Tris-HCl, pH 7.5, containing 10 mM CaCl2 and 5 mM ZnCl2] at 37° C., the gels were rinsed in distilled water, and stained for 3 hr with […], after which clear bands of digested gelatin were clearly visible. The gels were briefly rinsed in distilled water and scanned by the Bio-Rad GS-710 Calibrated Imaging Densitometer.

collagenase I (MMP-1) = assay: Collagenase activity assay, collagen thin film (collagen type II substrate); details: for Collagenase (% Inhibition): collagen thin film, collagen type II, peptide concentration not given
Description: Collagenase activity was assayed by collagen thin film method using collagen type II as substrate. IC50 values were graphically determined from the inhibition curves, constructed on the basis of the in vitro results of collagenase assays. Results are the mean±SD of 3 separate experiments done in triplicates. (•), P-NT.II; (□), PIP [59-67] dimer; (Δ), PIP [59-67} monomer; (∇), LY 315920.
Collagenase activity assay: Using collagen thin film as the substrate, a quantitative method was established to measure the enzymatic activity of the MMPs (principally collagenase). Collagen type II (Sigma) solution (4 μL, 3 mg/mL in 0.012 N HCl) was added to each well of 96-well plates and precipitated by slowly increasing the pH with 4 μL of H2O and 8 μL of 0.012 N NaOH. The plate was dried at 23° C. for 24 hr, washed with H2O, and dried again at 23° C., resulting in a thin film containing 12 μg of collagen that was tightly bound to the bottom of the wells. Enzymatic reactions of the collagenase I (with and without peptide inhibitors) against the collagen films were carried out in quadruplicate at 24° C. for 16 h. The digested portion of the film was washed away, while the undigested portion was fixed for 3 h with 0.1% Coomassie brilliant blue R in 10% acetic acid and 45% methanol, and the wells washed and dried.

[1] = biological target: T2, purified human synovial sPLA2 (human Type IIA sPLA2) (Homo sapiens, UniProt P14555); assay: sPLA2 inhibition, 3H-arachidonate-labelled E. coli membrane assay; details: fixed peptide concentration (5 μM); 3H-labelled E. coli membrane assay; read-out: % Inhibition (mean ± SD)
T2 construct: purchased Cayman Chemicals, USA
T2 sequence (P14555 21-144): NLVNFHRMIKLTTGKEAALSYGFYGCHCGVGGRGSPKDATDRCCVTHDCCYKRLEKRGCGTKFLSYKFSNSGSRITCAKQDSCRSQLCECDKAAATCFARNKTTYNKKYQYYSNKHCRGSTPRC
Description: In brief, [^3H] arachidonate-labeled E. coli membranes (0.005 mCi/mL; 5.8 μCi/μmol, NEN) were used as substrate, and 100 mM Tris-HCl—25 mM CaCl2, pH 7.5 solution as an assay buffer. The reaction mixture contained 20 μL of substrate, 0.85 pmole of purified human synovial sPLA2 (human Type IIA sPLA2, Cayman Chemicals, USA), and an increasing concentrations of the family of synthetic peptides derived from the sequence of PIP. The final volume of the reaction mixture was adjusted to 250 μL with an assay buffer. After incubation of the mixture (37° C., 1 h) and termination of the reaction with 750 μL of chilled PBS containing 1% BSA, microfuge tubes containing the samples were centrifuged (10,000 g at 4° C. for 15 min), and 500 μL aliquots of the supernatant taken to measure the amount of [^3H]-labeled arachidonate released from the E. coli membrane using liquid scintillation counting (Multipurpose Scintillation Counter LS 6500; Beckman, USA). As controls, sPLA2 was pre-incubated with the assay buffer alone. All samples, including controls, were performed in triplicate and plotted as the percentage inhibition relative to negative controls.
A sigmoid dose response curve was generated to allow calculation of the IC50 values. All samples were performed in triplicate. Results were analyzed by nonlinear regression with GraphPad Prism (version 2.01) and expressed as the percentage of inhibition relative to control values.

Structure (SMILES)	MMP-2 gelatinase activity (zymogram densitometry) vs control (MMP-2)	IC50 (collagenase I (MMP-1); collagen thin film method, FIG. 2, read-out: IC50 (mean±SD), collagenase I (MMP-1)) [µM]	Collagenase (% Inhibition) (collagenase I (MMP-1))	inhibition at 5 µM [1] [%]
CC[C@H](C)[C@H](NC(=O)[C@H](Cc1ccc(O)cc1)NC(=O)[C@@H](NC(=O)CNC(=O)[C@H](CC(=O)O)NC(=O)[C@H](Cc1c[nH]c2ccccc12)NC(=O)[C@@H](NC(=O)[C@H](Cc1c[nH]cn1)NC(=O)[C@@H](NC(=O)[C@H](CC(=O)O)NC(=O)[C@@H](NC(=O)[C@H](CCCNC(=N)N)NC(=O)CNC(=O)[C@@H](N)CC(C)C)C(C)C)[C@@H](C)CC)C(C)C)C(C)C)C(=O)N[C@@H](CCCNC(=N)N)C(=O)NCC(=O)N[C@@H](CCCNC(=N)N)C(=O)O [P-NT.II] (H-LGRVDIHVWDGVYIRGR-OH; N-terminus and C-terminus assumed)	did not show any significant difference from the control	8.43 ± 1.17	64.2 ± 5.6% and 64.2 ± 5.5%	–
CC[C@H](C)[C@H](NC(=O)[C@H](CC(=O)O)NC(=O)[C@@H](N)C(C)C)C(=O)N[C@@H](Cc1c[nH]cn1)C(=O)N[C@H](C(=O)N[C@@H](Cc1c[nH]c2ccccc12)C(=O)N[C@@H](CC(=O)O)C(=O)NCC(=O)N[C@H](C(=O)O)C(C)C)C(C)C [PIP [59-67] monomer] (H-VDIHVWDGV-OH; N-terminus and C-terminus assumed)	did not show any significant difference from the control	–	34.2 ± 4.7%	56.4 ± 3.21
